According to ChEMBL document CHEMBL4765450, “The components and activities analysis of a novel anticoagulant candidate dHG-5” (Eur J Med Chem, 2020):
Active and inactive are the calls of the source. The calls are words filed in the database; no cut-off is given here.

Tests used:
[1] = target: Coagulation factor X (Homo sapiens) (UniProt P00742); assay: Inhibition of factor 10a (unknown origin) at IC90 preincubated for 1 min followed by chromogenic substrate addition and measured for 2 mins in presence of AT-III relative to control; details: time 3.0 min
[2] = target: Coagulation factor XI (Homo sapiens) (UniProt P03951); assay: Inhibition of factor 11a (unknown origin) at IC50 using S-2366 as substrate preincubated for 1 min followed by chromogenic substrate addition and measured for 2 mins; details: time 3.0 min
[3] = target: Coagulation factor IX/VIII (Homo sapiens, UniProt P00451+P00740); assay: Inhibition of human citrated plasma iXase (factor 8a-factor 9a complex) preincubated for 2 mins followed by factor 10 addition and measured after 1 min by FXa chromogenic substrate SXa-11 based assay; format: protein-complex assay
Rattus norvegicus [4] = assay: Antithrombotic activity in thromboplastin and stasis-induced Sprague-Dawley rat deep venous thrombosis model assessed as reduction in venous thrombosis by measuring activity potency of oligosaccharides multiplied by the percentage of oligosaccharides in dHG-5 at 2.36 mg/kg, sc administered 1 hr prior to thromboplastin addition for 20 secs followed by establishment of stasis for 20 mins relative to dHG-5; format: functional; details: time 80.33 min, 1.339 h
Rattus norvegicus [5] = assay: Antithrombotic activity in thromboplastin and stasis-induced Sprague-Dawley rat deep venous thrombosis model assessed as reduction in venous thrombosis at 2.36 mg/kg, sc administered 1 hr prior to thromboplastin addition for 20 secs followed by establishment of stasis for 20 mins; format: functional; design: scale not given: the % may be the effect or the level left; details: time 80.33 min, 1.339 h
[6] = target: T1, Coagulation factor XII (Homo sapiens) (UniProt P00748); assay: Inhibition of factor 12a (unknown origin) at IC50 using kallikrein chromogenic substrate preincubated for 1 min followed by chromogenic substrate addition and measured for 2 mins in presence of AT-III; details: time 3.0 min
T1 sequence (whole entry): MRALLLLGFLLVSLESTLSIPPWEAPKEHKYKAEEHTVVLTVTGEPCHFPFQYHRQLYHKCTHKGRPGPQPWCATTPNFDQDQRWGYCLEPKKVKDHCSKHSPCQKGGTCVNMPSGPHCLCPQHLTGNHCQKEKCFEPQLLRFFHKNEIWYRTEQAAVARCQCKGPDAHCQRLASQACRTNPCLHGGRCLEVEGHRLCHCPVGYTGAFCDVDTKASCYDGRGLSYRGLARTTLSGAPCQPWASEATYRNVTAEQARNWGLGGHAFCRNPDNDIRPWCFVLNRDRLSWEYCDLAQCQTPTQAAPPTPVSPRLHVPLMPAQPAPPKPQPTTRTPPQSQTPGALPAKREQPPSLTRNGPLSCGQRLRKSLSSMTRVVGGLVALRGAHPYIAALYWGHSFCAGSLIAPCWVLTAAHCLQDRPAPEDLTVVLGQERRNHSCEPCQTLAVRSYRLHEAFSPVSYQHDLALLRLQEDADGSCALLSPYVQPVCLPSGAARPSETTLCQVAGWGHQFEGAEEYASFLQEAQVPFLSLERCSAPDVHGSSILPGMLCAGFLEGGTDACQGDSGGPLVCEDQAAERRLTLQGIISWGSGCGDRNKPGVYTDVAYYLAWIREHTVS

Coagulation factor IX [7] = target: T2, Coagulation factor IX (Homo sapiens, UniProt P00740); assay: Inhibition of factor 9a (unknown origin) binding to immobilized biotinylated oHG-11 by biolayer interferometry
[8] = target: T3, Coagulation factor IX/VIII (Homo sapiens) (UniProt P00740+P00451); assay: Inhibition of human citrated plasma iXase (factor 8a-factor 9a complex) assessed as activity potency of oligosaccharides multiplied by the percentage of oligosaccharides in dHG-5 preincubated for 2 mins followed by factor 10 addition and measured after 1 min by FXa chromogenic substrate SXa-11 based assay relative to dHG-5; format: protein-complex assay; details: time 3.0 min
[9] = target: Coagulation factor XI (Homo sapiens) (UniProt P03951); assay: Inhibition of factor 11a (unknown origin) at IC90 using S-2366 as substrate preincubated for 1 min followed by chromogenic substrate addition and measured for 2 mins in presence of AT-III; details: time 3.0 min
[10] = target: Prothrombin (Homo sapiens) (UniProt P00734); assay: Inhibition of factor 2a (unknown origin) at IC50 preincubated for 1 min followed by chromogenic substrate addition and measured for 2 mins in presence of AT-III; details: time 3.0 min
[11] = target: Coagulation factor X (Homo sapiens) (UniProt P00742); assay: Inhibition of factor 10a (unknown origin) at IC50 preincubated for 1 min followed by chromogenic substrate addition and measured for 2 mins in presence of AT-III; details: time 3.0 min
Plasma [12] = assay: Anticoagulation activity in human plasma assessed as drug level causing 20 times doubling of APTT preincubated for 2 mins followed by APTT reagent and measured after 3 mins by coagulometric method relative to dHG-5; format: functional; details: time 5 min
Plasma [13] = assay: Anticoagulation activity in HCII-deficient human plasma preincubated for 2 mins followed by APTT reagent and measured after 3 mins by coagulometric method; format: functional, cell-free; details: time 5.0 min
Plasma [14] = assay: Anticoagulation activity in AT-III-deficient human plasma preincubated for 2 mins followed by APTT reagent and measured after 3 mins by coagulometric method; format: functional, cell-free; details: time 5.0 min
[15] = target: Coagulation factor XI (Homo sapiens) (UniProt P03951); assay: Inhibition of factor 11a (unknown origin) at IC50 using S-2366 as substrate preincubated for 1 min followed by chromogenic substrate addition and measured for 2 mins in presence of AT-III; details: time 3.0 min
[16] = target: Coagulation factor X (Homo sapiens) (UniProt P00742); assay: Inhibition of factor 10a (unknown origin) at IC50 preincubated for 1 min followed by chromogenic substrate addition and measured for 2 mins; details: time 3.0 min
[17] = target: T3, Coagulation factor IX/VIII (Homo sapiens); assay: Inhibition of human citrated plasma iXase (factor 8a-factor 9a complex) preincubated for 2 mins followed by factor 10 addition and measured after 1 min by FXa chromogenic substrate SXa-11 based assay relative to dHG-5; format: protein-complex assay; details: time 3.0 min
[18] = target: T4, Coagulation factor VII (Homo sapiens) (UniProt P08709); assay: Inhibition of factor 7a (unknown origin) at IC50 using pefachrome factor VIIa as substrate preincubated for 1 min followed by chromogenic substrate addition and measured for 2 mins; details: time 3.0 min
T4 sequence (whole entry): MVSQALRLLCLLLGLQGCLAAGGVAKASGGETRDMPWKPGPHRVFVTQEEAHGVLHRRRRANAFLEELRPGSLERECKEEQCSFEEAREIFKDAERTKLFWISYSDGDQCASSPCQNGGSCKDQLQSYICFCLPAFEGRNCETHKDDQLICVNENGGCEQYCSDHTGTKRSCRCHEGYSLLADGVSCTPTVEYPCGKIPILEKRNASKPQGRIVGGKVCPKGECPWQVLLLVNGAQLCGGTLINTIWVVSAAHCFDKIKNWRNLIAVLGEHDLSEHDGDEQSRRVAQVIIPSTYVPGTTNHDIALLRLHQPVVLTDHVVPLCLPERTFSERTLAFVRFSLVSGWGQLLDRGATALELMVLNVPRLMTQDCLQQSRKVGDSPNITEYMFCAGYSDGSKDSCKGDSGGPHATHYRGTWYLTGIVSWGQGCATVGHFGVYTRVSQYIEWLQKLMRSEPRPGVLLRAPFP

Plasma [19] = assay: Anticoagulation activity in human plasma assessed as drug level causing 20 times doubling of APTT by measuring activity potency of oligosaccharides multiplied by the percentage of oligosaccharides in dHG-5 preincubated for 2 mins followed by APTT reagent and measured after 3 mins by coagulometric method relative to dHG-5; format: functional; details: time 5 min
Coagulation factor IX [20] = target: T2, Coagulation factor IX; assay: Inhibition of factor 9a (unknown origin) binding to immobilized biotinylated oHG-11 by biolayer interferometry relative to dHG-5
[21] = target: Prothrombin (Homo sapiens) (UniProt P00734); assay: Inhibition of factor 2a (unknown origin) at IC50 preincubated for 1 min followed by chromogenic substrate addition and measured for 2 mins; details: time 3.0 min
[22] = target: T1, Coagulation factor XII (Homo sapiens); assay: Inhibition of factor 12a (unknown origin) at IC50 using kallikrein chromogenic substrate preincubated for 1 min followed by chromogenic substrate addition and measured for 2 mins; details: time 3.0 min
[23] = target: T4, Coagulation factor VII (Homo sapiens); assay: Inhibition of factor 7a (unknown origin) at IC50 using pefachrome factor VIIa as substrate preincubated for 1 min followed by chromogenic substrate addition and measured for 2 mins in presence of AT-III; details: time 3.0 min
Rattus norvegicus [24] = assay: Antithrombotic activity in thromboplastin and stasis-induced Sprague-Dawley rat deep venous thrombosis model assessed as reduction in venous thrombosis at 2.36 mg/kg, sc administered 1 hr prior to thromboplastin addition for 20 secs followed by establishment of stasis for 20 mins relative to dHG-5; format: functional; details: time 80.33 min, 1.339 h
[25] = target: Prothrombin (Homo sapiens) (UniProt P00734); assay: Inhibition of factor 2a (unknown origin) at IC90 preincubated for 1 min followed by chromogenic substrate addition and measured for 2 mins in presence of AT-III; details: time 3.0 min
Coagulation factor IX [26] = target: T2, Coagulation factor IX; assay: Inhibition of factor 9a (unknown origin) binding to immobilized biotinylated oHG-11 assessed as activity potency of oligosaccharides multiplied by the percentage of oligosaccharides in dHG-5 by biolayer interferometry relative to dHG-5

Coagulation factor XI (Homo sapiens), sequence (P03951 19-387 limits assumed): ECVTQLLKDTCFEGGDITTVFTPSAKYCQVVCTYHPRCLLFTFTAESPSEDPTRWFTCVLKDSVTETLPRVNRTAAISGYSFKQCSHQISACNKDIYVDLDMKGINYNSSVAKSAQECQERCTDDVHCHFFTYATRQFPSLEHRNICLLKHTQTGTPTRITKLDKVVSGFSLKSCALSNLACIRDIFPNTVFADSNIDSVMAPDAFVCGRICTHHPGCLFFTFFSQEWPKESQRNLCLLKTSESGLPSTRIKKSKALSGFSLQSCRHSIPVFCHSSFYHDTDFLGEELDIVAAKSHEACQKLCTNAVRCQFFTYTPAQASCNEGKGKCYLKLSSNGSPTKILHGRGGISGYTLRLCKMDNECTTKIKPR
Coagulation factor XI (Homo sapiens), sequence (P03951 388-625 limits assumed): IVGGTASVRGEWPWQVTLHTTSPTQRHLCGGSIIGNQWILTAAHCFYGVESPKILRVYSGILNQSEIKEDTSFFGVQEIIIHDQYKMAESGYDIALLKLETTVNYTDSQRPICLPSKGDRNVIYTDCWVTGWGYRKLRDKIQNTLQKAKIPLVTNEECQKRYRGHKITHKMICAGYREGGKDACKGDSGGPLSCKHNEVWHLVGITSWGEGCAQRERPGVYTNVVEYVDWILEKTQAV
T2 sequence (P00740 47-191 limits assumed): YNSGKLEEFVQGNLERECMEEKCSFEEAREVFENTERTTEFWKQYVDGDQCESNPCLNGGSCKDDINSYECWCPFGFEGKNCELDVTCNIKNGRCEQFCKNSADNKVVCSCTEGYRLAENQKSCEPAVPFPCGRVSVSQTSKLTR
T2 sequence (P00740 227-461 limits assumed): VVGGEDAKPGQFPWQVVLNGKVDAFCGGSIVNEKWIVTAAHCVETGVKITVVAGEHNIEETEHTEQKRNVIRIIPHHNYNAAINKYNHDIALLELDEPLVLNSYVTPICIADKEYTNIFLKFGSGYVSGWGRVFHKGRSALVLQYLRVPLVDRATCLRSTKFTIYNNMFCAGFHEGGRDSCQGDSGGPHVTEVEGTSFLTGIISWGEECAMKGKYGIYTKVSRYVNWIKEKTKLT
Coagulation factor X (Homo sapiens), sequence (P00742 41-179 limits assumed): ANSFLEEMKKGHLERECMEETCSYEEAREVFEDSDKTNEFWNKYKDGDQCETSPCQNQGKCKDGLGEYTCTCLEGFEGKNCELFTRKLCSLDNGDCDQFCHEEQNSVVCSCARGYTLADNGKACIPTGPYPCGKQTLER
Coagulation factor X (Homo sapiens), sequence (P00742 235-488 limits assumed): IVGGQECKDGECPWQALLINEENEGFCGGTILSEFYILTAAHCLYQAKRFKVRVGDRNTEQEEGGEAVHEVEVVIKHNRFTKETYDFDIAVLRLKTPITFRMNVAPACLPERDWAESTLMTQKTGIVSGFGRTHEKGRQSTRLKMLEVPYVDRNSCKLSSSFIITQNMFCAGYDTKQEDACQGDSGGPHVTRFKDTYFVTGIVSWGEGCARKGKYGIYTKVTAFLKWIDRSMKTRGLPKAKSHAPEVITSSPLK
Coagulation factor IX/VIII, sequence (P00451 20-759 limits assumed): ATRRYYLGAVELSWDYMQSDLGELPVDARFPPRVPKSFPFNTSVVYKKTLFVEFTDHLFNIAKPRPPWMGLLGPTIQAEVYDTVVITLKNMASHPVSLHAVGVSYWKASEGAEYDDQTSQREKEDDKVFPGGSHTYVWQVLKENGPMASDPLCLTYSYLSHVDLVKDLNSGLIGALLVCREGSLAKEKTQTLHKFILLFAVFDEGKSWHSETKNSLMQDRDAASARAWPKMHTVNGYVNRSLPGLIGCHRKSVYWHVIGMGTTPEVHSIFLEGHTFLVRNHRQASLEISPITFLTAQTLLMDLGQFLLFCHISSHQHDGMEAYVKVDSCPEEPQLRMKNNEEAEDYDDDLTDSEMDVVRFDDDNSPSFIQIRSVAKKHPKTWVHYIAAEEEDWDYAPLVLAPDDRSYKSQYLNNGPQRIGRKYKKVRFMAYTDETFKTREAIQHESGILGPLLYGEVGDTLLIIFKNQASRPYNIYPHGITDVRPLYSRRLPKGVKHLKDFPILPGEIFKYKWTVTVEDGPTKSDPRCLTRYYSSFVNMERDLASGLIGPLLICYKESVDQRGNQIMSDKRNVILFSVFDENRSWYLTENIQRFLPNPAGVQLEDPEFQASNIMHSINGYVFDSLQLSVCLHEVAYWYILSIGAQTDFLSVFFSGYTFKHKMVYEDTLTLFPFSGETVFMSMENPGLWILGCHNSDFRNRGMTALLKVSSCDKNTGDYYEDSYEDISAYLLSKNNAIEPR
Coagulation factor IX/VIII, sequence (P00451 1668-2351 limits assumed): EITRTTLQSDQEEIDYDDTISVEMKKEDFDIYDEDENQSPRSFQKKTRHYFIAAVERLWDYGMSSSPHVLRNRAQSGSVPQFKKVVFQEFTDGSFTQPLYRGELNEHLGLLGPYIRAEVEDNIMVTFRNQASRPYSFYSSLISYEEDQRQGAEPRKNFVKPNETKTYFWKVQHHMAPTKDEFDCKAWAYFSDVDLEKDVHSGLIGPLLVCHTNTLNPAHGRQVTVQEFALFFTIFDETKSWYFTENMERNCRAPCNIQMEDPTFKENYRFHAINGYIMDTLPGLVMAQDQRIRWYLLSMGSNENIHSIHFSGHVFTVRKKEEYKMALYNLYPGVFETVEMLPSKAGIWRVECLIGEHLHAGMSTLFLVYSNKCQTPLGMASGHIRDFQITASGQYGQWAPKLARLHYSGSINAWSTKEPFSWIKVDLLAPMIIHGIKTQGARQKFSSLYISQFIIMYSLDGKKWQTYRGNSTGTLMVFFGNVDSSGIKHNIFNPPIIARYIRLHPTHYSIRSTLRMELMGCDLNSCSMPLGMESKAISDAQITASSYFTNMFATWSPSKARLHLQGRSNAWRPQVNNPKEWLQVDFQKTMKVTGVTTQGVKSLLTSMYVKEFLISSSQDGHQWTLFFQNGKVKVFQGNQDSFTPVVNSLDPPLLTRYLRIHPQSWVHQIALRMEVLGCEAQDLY
Coagulation factor IX/VIII, sequence (P00740 47-191 limits assumed): as the sequence (P00740 47-191 limits assumed) above
Coagulation factor IX/VIII, sequence (P00740 227-461 limits assumed): as the sequence (P00740 227-461 limits assumed) above

For CC(=O)N[C@H]1[C@H](O[C@@H]([C@H](O[C@@H]2O[C@@H](C)[C@@H](OS(=O)(=O)[O-])[C@@H](OS(=O)(=O)O)[C@@H]2O)[C@@H](O)CO)[C@H](O)C(=O)[O-])O[C@H](COS(=O)(=O)[O-])[C@H](OS(=O)(=O)[O-])[C@@H]1O[C@@H]1O[C@H](C(=O)[O-])[C@@H](O[C@@H]2O[C@H](COS(=O)(=O)[O-])[C@H](OS(=O)(=O)[O-])[C@H](O[C@@H]3O[C@H](C(=O)[O-])[C@@H](O[C@@H]4O[C@H](COS(=O)(=O)[O-])[C@H](OS(=O)(=O)[O-])[C@H](O[C@@H]5O[C@H](C(=O)[O-])[C@@H](O[C@@H]6O[C@H](COS(=O)(=O)[O-])[C@H](OS(=O)(=O)[O-])[C@H](O[C@@H]7O[C@H](C(=O)[O-])[C@@H](O[C@@H]8O[C@H](COS(=O)(=O)[O-])[C@H](OS(=O)(=O)[O-])[C@H](O[C@@H]9OC(C(=O)[O-])=C[C@H](O[C@@H]%10O[C@@H](C)[C@@H](OS(=O)(=O)[O-])[C@@H](OS(=O)(=O)O)[C@@H]%10O)[C@H]9O)[C@H]8NC(C)=O)[C@H](O[C@@H]8O[C@@H](C)[C@@H](OS(=O)(=O)[O-])[C@@H](OS(=O)(=O)O)[C@@H]8O)[C@H]7O)[C@H]6NC(C)=O)[C@H](O[C@@H]6O[C@@H](C)[C@@H](OS(=O)(=O)[O-])[C@@H](OS(=O)(=O)O)[C@@H]6O)[C@H]5O)[C@H]4NC(C)=O)[C@H](O[C@@H]4O[C@@H](C)[C@@H](OS(=O)(=O)[O-])[C@@H](OS(=O)(=O)O)[C@@H]4O)[C@H]3O)[C@H]2NC(C)=O)[C@H](O[C@@H]2O[C@@H](C)[C@@H](OS(=O)(=O)[O-])[C@@H](OS(=O)(=O)O)[C@@H]2O)[C@H]1O.[Na+].[Na+].[Na+].[Na+].[Na+].[Na+].[Na+].[Na+].[Na+].[Na+].[Na+].[Na+].[Na+].[Na+].[Na+].[Na+].[Na+].[Na+].[Na+].[Na+].[Na+].[Na+], the inhibition [1] was “inactive”, the inhibition [2] was “inactive” and the IC50 [3] was 17.2 nM. The Ratio (Rattus norvegicus [4]) was 16.73 U, the Activity (Rattus norvegicus [5]) was 58.4% and the inhibition [6] was “inactive”. The IC50 (Coagulation factor IX [7]) was 416 nM, the Ratio [8] was 11.1 U and the inhibition [9] was “Active”. For the same compound, the inhibition [10] was “inactive”, the inhibition [11] was “inactive” and the Ratio (Plasma [12]) was 104.07 U. The Activity (Plasma [13]) was “Active”, the Activity (Plasma [14]) was “Active” and the inhibition [15] was “inactive”. The inhibition [16] was “inactive”, the Ratio [17] was 81.6 U and the “inhibition (active/not active)” value [18] was “inactive”. For the same compound, the Ratio (Plasma [19]) was 14.17 U, the Ratio (Coagulation factor IX [20]) was 103 U and the inhibition [21] was “inactive”. For the same compound, the inhibition [22] was “inactive”, the inhibition [23] was “inactive” and the Ratio (Rattus norvegicus [24]) was 123.01 U. The inhibition [25] was “Active” and the Ratio (Coagulation factor IX [26]) was 14.1 U.
